Data taken from article PMC10216581, “Homogeneous, Synthetic, Non-Saccharide Glycosaminoglycan Mimetics as Potent Inhibitors of Human Cathepsin G” (Biomolecules, 2023).

Key:
Assay type in all cases: biochemical
[1] = test system: human plasma; experiment: Prothrombin time (PT) clotting assay; settings: concentration required to double the PT of pooled human plasma
Method: (§1) The impacts of NSGM 25 on activated partial thromboplastin time (aPTT) and the prothrombin time (PT) of human plasma were measured employing a standard one-stage recalcification assay at 37 °C, as previously reported. CaCl2 and thromboplastin-D were used to initiate clotting in aPTT and PT assays, respectively, in the absence and presence of NSGM 25, and the time to clot was recorded accordingly.

[2] = test system: human plasma; experiment: Activated partial thromboplastin time (aPTT) clotting assay; settings: concentration required to double the aPTT of pooled human plasma
Method: as §1

[3] = target: T1, Human CatG (Homo sapiens, UniProt P08311); experiment: Direct inhibition of CatG, chromogenic substrate (S-7388) hydrolysis assay, IC50 determination; settings: for IC50: pH 7.4 tris buffer, 37 °C, 60 nM CatG, 750 µM S-7388, ± 1 S.E., read-out: IC50; for IC50 / HS (Hill slope) / ΔY (efficacy): 100 mM NaCl; for HS (Hill slope): Hill slope of dose-response fit; for HS (Hill slope) / ΔY (efficacy): pH 7.4; for ΔY (efficacy): ΔY = YM − YO of dose-response fit; for fold difference (loss) in CatG inhibition potency relative to NSGM 25: ratio of IC50s versus 25
T1 construct: purchased Elastin Products Company (Owensville, MO, USA)
T1 sequence (P08311 21-255): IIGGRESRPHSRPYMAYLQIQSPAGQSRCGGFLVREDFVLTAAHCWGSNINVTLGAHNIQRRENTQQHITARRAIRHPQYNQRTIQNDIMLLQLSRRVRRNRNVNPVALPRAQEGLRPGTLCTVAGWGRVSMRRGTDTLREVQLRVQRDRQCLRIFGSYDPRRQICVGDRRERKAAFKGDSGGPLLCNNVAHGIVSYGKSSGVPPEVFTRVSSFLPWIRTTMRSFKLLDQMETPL
Method: A chromogenic substrate hydrolysis assay was used to determine the direct inhibition of CatG by the NSGMs, as previously reported. To each well of a 96-well microplate containing 88 µL of 20 mM tris buffer, containing 100 mM NaCl, 2.5 mM CaCl2, 0.1% PEG 8000, and 0.05% Tween 80, 4 µL of CatG (final concentration of 60 nM) and 5 µL of H2O or NSGM (final concentration of 0–100 µM) were added. After incubating for a period of 5 min, 3 µL of CatG substrate (S-7388, final concentration of 750 µM) was added, and the residual CatG activity was obtained from the initial rate of increase of absorbance at 405 nm. The relative residual activity of CatG for each of the NSGMs, at the various concentrations, was calculated from the ratio of CatG activity in the presence and absence of NSGMs. The dose dependence curve was plotted using a logistic equation (see below) in Sigmaplot version 12 to obtain the IC50 (potency), Hill slope (HS), and efficacy (ΔY). Here, Y is the ratio of residual CatG activity in the presence of NSGMs to that in their absence, YO and YM are the minimum and maximum values of fractional residual CatG activity, respectively, IC50 is the concentration of the NSGM that inhibits CatG activity by 50%, and HS is the Hill slope. ΔY = YM − YO. Y=YO+YM−YO/1+10^logI0−logIC50HS
Figure 4 Representative IC50 profiles for CatG inhibition by NSGMs. Direct inhibition of human CatG was measured using the chromogenic substrate hydrolysis assay at pH 7.4 and 37 °C. Solid lines represent analysis using the logistic dose–response relationship (Equation (1)) to obtain the IC50, ΔY%, and HS. Errors represent ± 1 S.E.

Row | Compound | IC50 [3] | HS (Hill slope) [3] | ΔY (efficacy) [3] | fold difference (loss) in CatG inhibition potency relative to NSGM 25 [3] | PT (EC2X) [1] | aPTT (EC2X) [2]
1 | CC1CNc2c(cccc2S(=O)(=O)N[C@@H](CCCNC(=N)N)C(=O)N2CC[C@@H](C)C[C@@H]2C(=O)O)C1 (some centres unmarked) [Argatroban, argatroban, reference compound] |  |  |  |  | 0.36 µM | 0.34 µM
2 | O=c1cc(-c2ccc(OS(=O)(=O)O)cc2)oc2cc(OS(=O)(=O)O)cc(OCC=CCOc3cc(OS(=O)(=O)O)cc4oc(-c5ccc(OS(=O)(=O)O)cc5)cc(=O)c34)c12 [NSGM 18] | 4.7 ± 0.7 µM | 1.5 ± 0.3 | 81 ± 7% |  |  | 
3 | O=c1cc(-c2ccc(OS(=O)(=O)O)cc2)oc2cc(OS(=O)(=O)O)cc(OCc3ccc(COc4cc(OS(=O)(=O)O)cc5oc(-c6ccc(OS(=O)(=O)O)cc6)cc(=O)c45)cc3)c12 [NSGM 19] | 3.3 ± 0.3 µM | 3.1 ± 1.0 | 82 ± 4% | 66 fold |  | 
4 | O=c1cc(-c2ccc(OS(=O)(=O)O)cc2)oc2cc(OS(=O)(=O)O)cc(OCc3ccc(COc4cc(OS(=O)(=O)O)cc5oc(-c6ccc(OS(=O)(=O)O)cc6)cc(=O)c45)nc3)c12 [NSGM 22] | 1.3 ± 0.2 µM | 1.2 ± 0.2 | 105 ± 7% |  |  | 
5 | O=c1cc(-c2ccc(OS(=O)(=O)O)cc2)oc2cc(OS(=O)(=O)O)cc(OCc3ccc(-c4ccc(COc5cc(OS(=O)(=O)O)cc6oc(-c7ccc(OS(=O)(=O)O)cc7)cc(=O)c56)cc4)cc3)c12 [NSGM 23] | 3.4 ± 0.2 µM | 4.1 ± 1.0 | 103 ± 4% |  |  | 
6 | O=c1c(OS(=O)(=O)O)c(-c2ccc(OS(=O)(=O)O)c(OS(=O)(=O)O)c2)oc2cc(OS(=O)(=O)O)cc(OCCCOc3cc(OS(=O)(=O)O)cc4oc(-c5ccc(OS(=O)(=O)O)c(OS(=O)(=O)O)c5)c(OS(=O)(=O)O)c(=O)c34)c12 [NSGM 24] | 0.21 ± 0.04 µM | 1.5 ± 0.5 | 94 ± 9% | 4 fold |  | 
7 | O=c1c(OS(=O)(=O)O)c(-c2ccc(OS(=O)(=O)O)c(OS(=O)(=O)O)c2)oc2cc(OS(=O)(=O)O)cc(OCc3cccc(COc4cc(OS(=O)(=O)O)cc5oc(-c6ccc(OS(=O)(=O)O)c(OS(=O)(=O)O)c6)c(OS(=O)(=O)O)c(=O)c45)c3)c12 [NSGM 27] | 0.15 ± 0.06 µM | 0.9 ± 0.4 | 77 ± 10% |  |  | 
8 | O=c1c(OS(=O)(=O)O)c(-c2ccc(OS(=O)(=O)O)c(OS(=O)(=O)O)c2)oc2cc(OS(=O)(=O)O)cc(OCc3ccc(COc4cc(OS(=O)(=O)O)cc5oc(-c6ccc(OS(=O)(=O)O)c(OS(=O)(=O)O)c6)c(OS(=O)(=O)O)c(=O)c45)nc3)c12 [NSGM 28] | 0.18 ± 0.04 µM | 0.9 ± 0.2 | 77 ± 5% |  |  | 
9 | O=C(NC[C@H]1CN(c2ccc(N3CCOCC3=O)cc2)C(=O)O1)c1ccc(Cl)s1 [Rivaroxaban, rivaroxaban, reference compound] |  |  |  |  | 0.15 µM | 0.12 µM

Further lines, with some results ahead:

Row | IC50 [3] | HS (Hill slope) [3] | ΔY (efficacy) [3] | fold difference (loss) in CatG inhibition potency relative to NSGM 25 [3] | Compound | PT (EC2X) [1] | aPTT (EC2X) [2]
10 | > 50 µM |  |  |  | CCOC(=O)c1c(C)oc2cc(OCc3cccc(OS(=O)(=O)O)c3)c(OS(=O)(=O)O)cc12 [NSGM 2] |  | 
11 | > 50 µM |  |  |  | COc1cc2oc(C)c(C(=O)OCCOS(=O)(=O)O)c2cc1OS(=O)(=O)O [NSGM 3] |  | 
12 | > 100 µM | 1.9 ± 0.3 | 115 ± 4% |  | Cc1ccc(OCCOc2cc(OS(=O)(=O)O)cc3oc(-c4ccc(OS(=O)(=O)O)cc4)cc(=O)c23)cc1 [NSGM 16] |  | 
13 | 65 ± 13 µM | 3.1 ± 1.3 | 76 ± 7% |  | O=S(=O)(O)Oc1cc2c(c(OS(=O)(=O)O)c1)CC(OS(=O)(=O)O)C(c1ccc(OS(=O)(=O)O)c(OS(=O)(=O)O)c1)O2 (centres unmarked) [NSGM 17] |  | 
14 | 10.3 ± 4.8 µM | 1.3 ± 0.8 | 81 ± 7% |  | O=c1cc(-c2ccc(OS(=O)(=O)O)cc2)oc2cc(OS(=O)(=O)O)cc(OCc3cccc(COc4cc(OS(=O)(=O)O)cc5oc(-c6ccc(OS(=O)(=O)O)cc6)cc(=O)c45)c3)c12 [NSGM 21] |  | 
15 | 18.9 ± 2.2 µM | 2.1 ± 0.5 | 87 ± 5% |  | CCOC(=O)c1c(C)oc2cc(OCc3ccccc3)c(OCCCOc3cc(OS(=O)(=O)O)cc4oc(-c5ccc(OS(=O)(=O)O)cc5)cc(=O)c34)cc12 [NSGM 30] |  | 
